Measurements published in PMC8151276, “An Integrated Approach toward NanoBRET Tracers for Analysis of GPCR Ligand Engagement” (Molecules, 2021).

Assays:
Format in all cases: binding
[1] = target: T1, CCR1 (Homo sapiens, UniProt P32246); experiment: NanoBRET screen HiBiT-CCR1 in HEK293
T1 construct: purchased Promega (in-house HiBiT-GPCR construct library, NanoBRET)
T1 sequence (P32246 1-355): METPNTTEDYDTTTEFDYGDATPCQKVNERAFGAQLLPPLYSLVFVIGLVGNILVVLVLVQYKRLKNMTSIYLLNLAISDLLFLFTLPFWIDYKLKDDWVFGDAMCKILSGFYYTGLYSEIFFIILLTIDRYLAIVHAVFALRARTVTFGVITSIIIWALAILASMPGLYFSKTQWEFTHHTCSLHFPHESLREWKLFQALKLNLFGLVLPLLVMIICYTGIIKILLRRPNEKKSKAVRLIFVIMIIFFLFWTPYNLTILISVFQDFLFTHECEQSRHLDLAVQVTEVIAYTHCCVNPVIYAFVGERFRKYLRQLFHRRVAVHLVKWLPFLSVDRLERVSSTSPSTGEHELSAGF
Protocol: (§1) Each tracer candidate was screened across the entire library of HiBiT-GPCR constructs using NanoBRET as the detection modality. As depicted in Figure 4A, the specificity of interactions was evaluated through decrease in BRET due to competitive displacement of a bound tracer by excess parental compound. Each tracer was analyzed for binding to each HiBiT-GPCR fusion in the absence and in the presence of competing parental compound. Briefly, HEK293 cells were transfected with HiBiT-GPCR constructs diluted into promoterless DNA to reduce expression and maximize translocation to the cell surface. Each tracer candidate was then screened at concentrations of 1 μM and 0.1 μM across cells expressing these fusions. Cells were treated for 1.5 h with tracer either alone or in the presence of 20 μM competing parental compound (i.e., control). BRET was measured upon addition of purified LgBiT and subsequent complementation with HiBiT genetically fused to a GPCR. The specificity of interactions was assessed through a decrease in BRET signal due to competitive displacement of the bound tracer. To further gauge the robustness of these interactions, the fold response over the control (i.e., BRETtracer/BRETcontrol) was calculated. We chose a 1.5-fold response, which translates to ≥7-fold signal over noise as the minimal threshold required to score an interaction as positive. […]. Below we highlight the screening results obtained for our exemplary fluorescent tracers based on Clozapine, Amitriptyline and AZD1283.
(§2) HiBiT-GPCR DNA constructs were diluted in 10 mM Tris pH 8 to a final concentration of 0.01 μg/μL, arrayed in 96-well plates and stored at −20 °C. For transfection, HEK293 cells were suspended in Opti-MEM (without phenol red) supplemented with 2% fetal bovine serum (Seradigm) and 100 units/mL penicillin–streptomycin (Gibco) at a final concentration of 220,000 cells/mL and dispensed into white 96-well plates at 90 μL/well. Subsequent transfections and screens were carried using an Agilent Bravo Automated Liquid Handling Platform. First, the 96-well HiBiT DNA arrays were diluted 25-fold in Opti-MEM (without serum or phenol red) to a final concentration of 0.0004 μg/μL and 20 μL of the diluted DNAs were transferred into new 96-well plates. Next, promoterless carrier DNA (1 μg/μL) was diluted 25-fold (0.04 μg/μL) and then dispensed into the diluted arrays at 20 μL/well. Following brief mixing, Viafect transfection reagent (Promega) diluted 16-fold into Opti-MEM was dispensed into the plates at 40 μL/well. After mixing by pipetting, plates were incubated for 10 min on the pipetting station deck. The DNA-transfection reagent complexes were then added to plates containing cells. To facilitate the screen, 10 μL of DNA-transfection reagent complexes were added in duplicates to the top 4 and bottom 4 rows, resulting in two identical 48-well arrays per plate. Plates with transfected cells were incubated for 18–20 h at 37 °C/5% CO2. A screen of each tracer across the entire library using two different concentrations requires duplicate plates of transfected cells. Depending on the number of tracers being screened, transfections can be scaled up using the same ratios. The next day, for each tracer, four 20× screening solutions in tracer dilution buffer (Promega) were prepared: two duplicates at final concentration of 20 μM and two duplicates at a final concentration of 2 μM. A competing unmodified compound was added to one of each duplicate at a final concentration of 400 μM. The four resulting solutions were diluted 4-fold in Opti-MEM without serum or phenol red to generate 5× solutions (5 µM and 0.5 µM tracer +/− 100 μM competing compound). To screen the library, a BioTek MultiFlo FX liquid dispenser was used to dispense 22.5 µL of tracer solution to the top 4 rows and 22.5 µL tracer + competing compound solution to the 4 bottom rows. Plates were briefly mixed on an orbital shaker and incubated for 1.5 h at room temperature. […]

[2] = target: T2, HRH4 (Homo sapiens, UniProt Q9H3N8); experiment: NanoBRET screen HiBiT-HRH4 in HEK293
T2 construct: purchased Promega (in-house HiBiT-GPCR construct library, NanoBRET)
T2 sequence (Q9H3N8 whole entry): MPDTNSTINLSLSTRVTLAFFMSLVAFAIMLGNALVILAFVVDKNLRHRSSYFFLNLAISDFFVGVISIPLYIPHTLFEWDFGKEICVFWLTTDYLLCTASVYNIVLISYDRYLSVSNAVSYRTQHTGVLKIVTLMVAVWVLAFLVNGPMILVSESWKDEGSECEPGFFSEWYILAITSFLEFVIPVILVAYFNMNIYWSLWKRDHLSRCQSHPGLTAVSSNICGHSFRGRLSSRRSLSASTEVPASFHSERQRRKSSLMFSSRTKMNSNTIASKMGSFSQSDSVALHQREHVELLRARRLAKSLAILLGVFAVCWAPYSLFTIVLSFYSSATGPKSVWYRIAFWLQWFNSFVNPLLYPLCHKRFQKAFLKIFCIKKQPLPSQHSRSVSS
Protocol: as §1, §2

[3] = target: T3, P2RY1 (Homo sapiens, UniProt P47900); experiment: NanoBRET screen HiBiT-P2RY1 in HEK293
T3 construct: purchased Promega (in-house HiBiT-GPCR construct library, NanoBRET)
T3 sequence (P47900 whole entry): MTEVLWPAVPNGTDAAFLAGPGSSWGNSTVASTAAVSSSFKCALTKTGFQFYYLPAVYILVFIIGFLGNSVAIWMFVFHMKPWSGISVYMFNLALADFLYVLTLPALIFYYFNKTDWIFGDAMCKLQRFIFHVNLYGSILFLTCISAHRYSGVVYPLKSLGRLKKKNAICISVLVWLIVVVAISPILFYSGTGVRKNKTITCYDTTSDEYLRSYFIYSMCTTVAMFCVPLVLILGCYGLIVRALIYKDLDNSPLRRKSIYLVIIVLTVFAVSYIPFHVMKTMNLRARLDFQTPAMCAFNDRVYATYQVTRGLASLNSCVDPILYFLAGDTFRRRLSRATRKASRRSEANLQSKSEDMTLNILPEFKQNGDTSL
Protocol: as §1, §2

[4] = target: T4, FZD8 (Homo sapiens, UniProt Q9H461); experiment: NanoBRET screen HiBiT-FZD8 in HEK293
T4 construct: purchased Promega (in-house HiBiT-GPCR construct library, NanoBRET)
T4 sequence (Q9H461 28-694): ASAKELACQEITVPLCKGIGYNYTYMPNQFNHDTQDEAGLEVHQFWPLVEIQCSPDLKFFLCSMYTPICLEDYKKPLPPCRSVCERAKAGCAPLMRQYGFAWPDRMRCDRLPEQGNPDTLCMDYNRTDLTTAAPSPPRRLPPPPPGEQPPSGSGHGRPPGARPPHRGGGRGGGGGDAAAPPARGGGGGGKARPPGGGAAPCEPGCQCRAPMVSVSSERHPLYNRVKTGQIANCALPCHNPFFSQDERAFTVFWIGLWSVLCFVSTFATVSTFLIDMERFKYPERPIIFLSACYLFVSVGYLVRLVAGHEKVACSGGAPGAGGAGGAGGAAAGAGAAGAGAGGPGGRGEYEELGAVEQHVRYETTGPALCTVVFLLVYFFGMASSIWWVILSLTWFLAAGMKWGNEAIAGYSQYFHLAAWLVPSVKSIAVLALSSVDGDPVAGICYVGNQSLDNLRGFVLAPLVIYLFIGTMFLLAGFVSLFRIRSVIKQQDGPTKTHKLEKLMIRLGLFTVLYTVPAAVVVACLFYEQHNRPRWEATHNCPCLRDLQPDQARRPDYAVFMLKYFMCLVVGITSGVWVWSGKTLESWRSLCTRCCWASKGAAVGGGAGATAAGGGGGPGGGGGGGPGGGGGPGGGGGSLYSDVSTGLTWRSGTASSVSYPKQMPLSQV
Protocol: as §1, §2

[5] = target: T5, MCHR1 (Homo sapiens, UniProt Q99705); experiment: NanoBRET screen HiBiT-MCHR1 in HEK293
T5 construct: purchased Promega (in-house HiBiT-GPCR construct library, NanoBRET)
T5 sequence (Q99705 whole entry): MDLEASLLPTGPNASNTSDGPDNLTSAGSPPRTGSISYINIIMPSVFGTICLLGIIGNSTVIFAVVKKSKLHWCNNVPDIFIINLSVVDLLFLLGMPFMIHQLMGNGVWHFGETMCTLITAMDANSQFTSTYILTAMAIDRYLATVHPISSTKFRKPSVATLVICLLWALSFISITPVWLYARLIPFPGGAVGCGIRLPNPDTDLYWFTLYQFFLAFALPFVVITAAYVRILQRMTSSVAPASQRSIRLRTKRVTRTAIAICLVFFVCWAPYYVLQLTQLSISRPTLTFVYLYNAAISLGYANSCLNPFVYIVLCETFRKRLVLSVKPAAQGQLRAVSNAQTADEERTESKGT
Protocol: as §1, §2

[6] = target: T6, NPY1R (Homo sapiens, UniProt P25929); experiment: NanoBRET screen HiBiT-NPY1R in HEK293
T6 construct: purchased Promega (in-house HiBiT-GPCR construct library, NanoBRET)
T6 sequence (P25929 1-384): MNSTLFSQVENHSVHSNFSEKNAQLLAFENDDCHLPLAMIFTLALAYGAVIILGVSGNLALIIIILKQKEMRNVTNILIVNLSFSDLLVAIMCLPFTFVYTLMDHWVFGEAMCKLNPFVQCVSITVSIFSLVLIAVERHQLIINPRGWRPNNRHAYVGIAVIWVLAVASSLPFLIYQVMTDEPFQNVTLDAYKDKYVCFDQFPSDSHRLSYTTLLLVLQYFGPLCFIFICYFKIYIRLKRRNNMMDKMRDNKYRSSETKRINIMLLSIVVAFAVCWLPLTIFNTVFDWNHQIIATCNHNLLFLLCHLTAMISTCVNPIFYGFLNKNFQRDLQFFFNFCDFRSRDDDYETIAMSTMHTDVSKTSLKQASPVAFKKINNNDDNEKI
Protocol: as §1, §2

[7] = target: T7, GRM5 (Homo sapiens, UniProt P41594); experiment: NanoBRET screen HiBiT-GRM5 in HEK293
T7 construct: purchased Promega (in-house HiBiT-GPCR construct library, NanoBRET)
T7 sequence (P41594 21-1212): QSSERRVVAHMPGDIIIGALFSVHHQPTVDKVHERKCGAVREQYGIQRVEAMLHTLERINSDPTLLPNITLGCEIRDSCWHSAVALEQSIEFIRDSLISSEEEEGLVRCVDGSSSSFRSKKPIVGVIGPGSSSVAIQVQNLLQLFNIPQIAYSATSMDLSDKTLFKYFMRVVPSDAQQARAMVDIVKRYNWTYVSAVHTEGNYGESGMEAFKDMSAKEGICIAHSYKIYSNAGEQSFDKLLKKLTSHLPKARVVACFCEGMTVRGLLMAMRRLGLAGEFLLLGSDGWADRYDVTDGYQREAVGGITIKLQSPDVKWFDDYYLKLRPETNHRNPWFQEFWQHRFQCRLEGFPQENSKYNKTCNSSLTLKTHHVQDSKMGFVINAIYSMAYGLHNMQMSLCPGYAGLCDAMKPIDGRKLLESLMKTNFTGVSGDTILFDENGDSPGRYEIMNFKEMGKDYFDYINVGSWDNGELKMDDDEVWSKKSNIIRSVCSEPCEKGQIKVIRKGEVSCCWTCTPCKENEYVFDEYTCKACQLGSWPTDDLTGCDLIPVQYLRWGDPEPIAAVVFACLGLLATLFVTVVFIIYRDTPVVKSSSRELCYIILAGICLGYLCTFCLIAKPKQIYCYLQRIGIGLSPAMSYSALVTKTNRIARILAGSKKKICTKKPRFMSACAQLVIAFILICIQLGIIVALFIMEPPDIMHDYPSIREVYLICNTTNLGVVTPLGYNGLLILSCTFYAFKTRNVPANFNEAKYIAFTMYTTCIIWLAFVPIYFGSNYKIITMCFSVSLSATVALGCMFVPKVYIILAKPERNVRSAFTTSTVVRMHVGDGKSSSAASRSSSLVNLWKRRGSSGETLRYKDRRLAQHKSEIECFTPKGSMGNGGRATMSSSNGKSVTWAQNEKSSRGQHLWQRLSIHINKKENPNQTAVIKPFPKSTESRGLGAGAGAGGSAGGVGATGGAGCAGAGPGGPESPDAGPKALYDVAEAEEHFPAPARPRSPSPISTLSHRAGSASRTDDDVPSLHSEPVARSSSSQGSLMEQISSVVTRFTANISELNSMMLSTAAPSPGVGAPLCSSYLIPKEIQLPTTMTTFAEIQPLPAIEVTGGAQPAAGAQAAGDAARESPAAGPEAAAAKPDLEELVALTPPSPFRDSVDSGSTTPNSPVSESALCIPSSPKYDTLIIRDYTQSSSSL
Protocol: as §1, §2

| SMILES | NanoBRET Fold Response ([1]; 0.1μM tracer) | NanoBRET Fold Response ([1]; 1μM tracer) | NanoBRET Fold Response ([4]; 0.1μM tracer) | NanoBRET Fold Response ([4]; 1μM tracer) | NanoBRET Fold Response ([2]; 0.1μM tracer) | NanoBRET Fold Response ([2]; 1μM tracer) | NanoBRET Fold Response ([3]; 0.1μM tracer) | NanoBRET Fold Response ([3]; 1μM tracer) | NanoBRET Fold Response ([5]; 0.1μM tracer) | NanoBRET Fold Response ([5]; 1μM tracer) | NanoBRET Fold Response ([6]; 0.1μM tracer) | NanoBRET Fold Response ([6]; 1μM tracer) | NanoBRET Fold Response ([7]; 0.1μM tracer) | NanoBRET Fold Response ([7]; 1μM tracer) | other results |
| --- | --- | --- | --- | --- | --- | --- | --- | --- | --- | --- | --- | --- | --- | --- | --- |
| CN(CCC=C1c2ccccc2CCc2ccccc21)C(=O)CCOCCOCCOCCOCCNC(=O)CCc1ccc2n1[B-](F)(F)[N+]1=C(c3ccc[nH]3)C=CC1=C2 [Amitriptyline-e-2-NB590] |  |  |  |  |  |  |  |  |  |  |  |  |  |  | NanoBRET Fold Response ([1]; tracer at 1μM): 0.99; NanoBRET Fold Response ([2]; tracer at 1μM): 0.92; NanoBRET Fold Response ([3]; tracer at 1μM): 0.96 |
| COc1ccc2c(n1)c(CCNC(C)=O)cn2CCNC(=O)CCc1ccc2n1[B-](F)(F)[N+]1=C(c3ccc[nH]3)C=CC1=C2 [Azamelatonin-1-NB590] | 0.90 | 1.04 | 1.39 | 0.81 | 0.92 | 0.92 | 0.99 | 0.99 | 0.96 | 0.84 | 0.93 | 0.68 | 0.84 | 0.95 |  |
| COc1ccc2[nH]c(-c3ccc(CNC(=O)CCOCCOCCOCCOCCNC(=O)CCc4ccc5n4[B-](F)(F)[N+]4=C(c6ccc[nH]6)C=CC4=C5)cc3)c(CCNC(C)=O)c2n1 [AzomelatoninICO9-2-NB590] | 1.12 | 1.21 | 0.91 | 1.03 | 0.80 | 1.14 | 0.99 | 0.99 | 1.38 | 0.88 | 1.15 | 0.94 | 0.97 | 1.03 |  |
| O=C(CCOCCOCCOCCOCCNC(=O)CCc1ccc2n1[B-](F)(F)[N+]1=C(c3ccc[nH]3)C=CC1=C2)NCCCN1CCN(C2=Nc3cc(Cl)ccc3Nc3ccccc32)CC1 [Clozapine-a-2-NB590] |  |  |  |  |  |  |  |  |  |  |  |  |  |  | NanoBRET Fold Response ([1]; CCR1, 0.1μM tracer): 1.03; NanoBRET Fold Response ([1]; CCR1, 1μM tracer): 0.94; NanoBRET Fold Response ([4]; FZD8, 0.1μM tracer): 1.02; NanoBRET Fold Response ([4]; FZD8, 1μM tracer): 1.00; NanoBRET Fold Response ([2]; HRH4, 0.1μM tracer): 1.00; NanoBRET Fold Response ([2]; HRH4, 1μM tracer): 1.07; NanoBRET Fold Response ([3]; P2RY1, 0.1μM tracer): 1.01; NanoBRET Fold Response ([3]; P2RY1, 1μM tracer): 0.94; NanoBRET Fold Response ([5]; MCHR1, 0.1μM tracer): 0.87; NanoBRET Fold Response ([5]; MCHR1, 1μM tracer): 1.26; NanoBRET Fold Response ([6]; NPY1R, 0.1μM tracer): 0.97; NanoBRET Fold Response ([6]; NPY1R, 1μM tracer): 1.23; NanoBRET Fold Response ([7]; GRM5, 0.1μM tracer): 0.99; NanoBRET Fold Response ([7]; GRM5, 1μM tracer): 1.10 |
